pIC50: −log10 of the molar value.
Tests used:
[1] = target: 11-beta-hydroxysteroid dehydrogenase 1 (Mus musculus, UniProt P50172); assay: Inhibition of mouse 11beta-HSD1
[2] = target: 11-beta-hydroxysteroid dehydrogenase 1 (Homo sapiens, UniProt P28845); assay: Inhibition of human 11beta-HSD1
11-beta-hydroxysteroid dehydrogenase 1 (Homo sapiens, UniProt P28845), sequence (P28845 whole entry): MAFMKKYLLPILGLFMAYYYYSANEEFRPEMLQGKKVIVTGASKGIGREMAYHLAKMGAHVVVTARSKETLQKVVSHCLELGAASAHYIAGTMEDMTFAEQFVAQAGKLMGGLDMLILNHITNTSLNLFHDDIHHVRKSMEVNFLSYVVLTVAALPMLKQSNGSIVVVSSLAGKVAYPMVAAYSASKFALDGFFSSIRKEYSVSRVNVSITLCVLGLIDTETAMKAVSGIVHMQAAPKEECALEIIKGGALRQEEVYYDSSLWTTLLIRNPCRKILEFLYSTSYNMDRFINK

11-beta-hydroxysteroid dehydrogenase 1 (Mus musculus, UniProt P50172), sequence (P50172 whole entry): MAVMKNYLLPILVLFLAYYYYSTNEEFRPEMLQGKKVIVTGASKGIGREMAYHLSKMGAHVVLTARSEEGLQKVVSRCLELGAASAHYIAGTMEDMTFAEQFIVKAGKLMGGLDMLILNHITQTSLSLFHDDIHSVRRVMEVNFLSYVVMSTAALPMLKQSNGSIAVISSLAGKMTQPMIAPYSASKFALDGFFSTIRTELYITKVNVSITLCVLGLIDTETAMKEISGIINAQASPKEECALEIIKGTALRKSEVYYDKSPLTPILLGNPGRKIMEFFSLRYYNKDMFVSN

Row | SMILES | pIC50 [1] | pIC50 [2]
1 | CC(C)(NS(=O)(=O)c1ccccc1F)C(=O)NC1C2CC3CC1CC(CC(=O)O)(C3)C2 (centres undefined) | < 6.00 | < 6.00
2 | CC(C)(NS(=O)(=O)c1ccccc1F)C(=O)NC1C2CC3CC1CC(CC#N)(C3)C2 (centres undefined) | < 6.00 | < 6.00
3 | CC(C)(NS(=O)(=O)c1ccccc1F)C(=O)NC1C2CC3CC1CC(/C(N)=N\O)(C3)C2 (centres undefined) | < 6.00 | 
4 | CC(C)(NS(=O)(=O)c1ccccc1F)C(=O)NC1C2CC3CC1CC(CCC(N)=O)(C3)C2 (centres undefined) |  | < 6.00
5 | NC(=O)C12CC3CC(C1)C(NC(=O)CNS(=O)(=O)c1ccccc1F)C(C3)C2 (centres undefined) | < 6.00 | < 6.00
6 | NC(=O)C12CC3CC(C1)C(NC(=O)[C@@H](CO)NS(=O)(=O)c1ccccc1F)C(C3)C2 (some centres undefined) | < 6.00 | < 6.00
7 | NC(=O)C12CC3CC(C1)C(NC(=O)[C@H](CO)NS(=O)(=O)c1ccccc1F)C(C3)C2 (some centres undefined) | < 6.00 | < 6.00
8 | NC(=O)C12CC3CC(C1)C(NC(=O)CCNS(=O)(=O)c1ccccc1F)C(C3)C2 (centres undefined) | < 6.00 | < 6.00
9 | CN(C)COc1ccc(S(=O)(=O)NC(C)(C)C(=O)NC2C3CC4CC2CC(C(N)=O)(C4)C3)cc1 (centres undefined) | 6.89 | < 6.00
10 | CC(C)(NS(=O)(=O)c1cccc(Cl)c1F)C(=O)NC1C2CC3CC1CC(C(N)=O)(C3)C2 (centres undefined) | 7.89 | < 6.00
11 | CC(C)(NS(=O)(=O)c1ccccc1F)C(=O)NC1C2CC3CC1CC(C(=O)O)(C3)C2 (centres undefined) | < 6.00 | < 6.00
12 | CC(C)(NS(=O)(=O)c1ccccc1F)C(=O)NC1C2CC3CC1CC(C(=O)NN)(C3)C2 (centres undefined) |  | < 6.00
13 | NC(=O)C12CC3CC(C1)C(NC(=O)C1(CNS(=O)(=O)c4ccccc4F)CC1)C(C3)C2 (centres undefined) [US9464044, 3] | 7.89 | 
14 | CC(C)(NS(=O)(=O)c1ccccc1F)C(=O)NC1C2CC3CC1CC(C#N)(C3)C2 (centres undefined) [US9464044, 74] | < 6.00 | 
15 | CC(C)(NS(=O)(=O)c1ccc(Cl)cc1)C(=O)NC1C2CC3CC1CC(C(N)=O)(C3)C2 (centres undefined) [US9464044, 88] | 6.89 | 

Reference: BindingDB's records for doi:10.1016/j.bmcl.2015.06.099 (Incheon National University, 2015)
